Measurements as given in patent US20020002269A1, “ARTEMIN, A NEUROTROPHIC FACTOR” (priority 1998, published 2002).

What was measured:
[1] = test system: dopaminergic neurons from the rat embryonic ventral midbrain; experiment: Survival of TH+ dopaminergic ventral midbrain neurons; type: cell-based; conditions: E14 rat, 50 ng/ml, 3 days in culture, FIG. 7F
Protocol: Embryonic day 14 ventral mesencephalon cultures were prepared by removing the entire mesencephalon into cold Leibovitz's L15+6 mg/ml glucose and dissecting the tissue while keeping it on ice. Following dissection, the tissue was digested in a mixture of dispase (1 mg/ml, Sigma) and collagenase (1 mg/ml, Worthington Biochemical) for 25 min. Tissue was then washed twice with modified N2 media and triturated 35 times. Cell density and viability was assessed using a hemocytometer to count trypan blue excluding cells. Cells were plated at 20,000 cells/well on 8-well chamber slides (coated with 125 ng/ml poly-D-lysine and 25 ng/ml laminin) in serum-free medium consisting of DME/Hams F12 (1:1), 1 mg/ml BSA, 5 μM insulin, 10 nM progesterone, 100 μM putrescine, 30 nM selenium, 10 ng/ml rat transferrin, 100 U/ml penicillin, 100 U/ml streptomycin. Factors were added within 15 min of plating. After 3 days in culture, the cells were fixed, stained for tyrosine hydroxylase, and the number of tyrosine hydroxylase staining (TH+) neurons were counted. The results from two independent experiments are shown in FIG. 7F as the percentage of surviving TH+ neurons over control.

GFRα3-Fc = molecular target: T1, GFRα3-Fc (Homo sapiens, UniProt O60609); experiment: Direct binding of soluble GFRα3-Fc receptor body to plate-coated ligand; conditions: ligand coated at 325 ng/ml, absence of RET, FIG. 9E
T1 construct: purchased R&D Systems
T1 sequence (O60609 with tags, fused parts or gaps limits assumed): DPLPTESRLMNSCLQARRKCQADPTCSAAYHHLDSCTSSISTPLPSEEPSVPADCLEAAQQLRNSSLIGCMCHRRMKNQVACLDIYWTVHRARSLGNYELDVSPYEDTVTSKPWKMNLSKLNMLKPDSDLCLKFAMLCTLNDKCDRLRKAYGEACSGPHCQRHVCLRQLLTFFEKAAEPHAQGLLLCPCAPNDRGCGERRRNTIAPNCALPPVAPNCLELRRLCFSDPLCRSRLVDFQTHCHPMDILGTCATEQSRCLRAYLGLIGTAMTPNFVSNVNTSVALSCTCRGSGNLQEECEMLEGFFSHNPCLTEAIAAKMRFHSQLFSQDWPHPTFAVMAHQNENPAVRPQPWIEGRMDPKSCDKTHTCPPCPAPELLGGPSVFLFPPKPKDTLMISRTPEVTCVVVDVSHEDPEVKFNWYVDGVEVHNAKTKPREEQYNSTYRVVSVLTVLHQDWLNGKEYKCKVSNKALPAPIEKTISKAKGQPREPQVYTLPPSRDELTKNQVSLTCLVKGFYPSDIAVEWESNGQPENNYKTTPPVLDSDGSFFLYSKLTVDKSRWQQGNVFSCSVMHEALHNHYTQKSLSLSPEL
Protocol: To investigate which if any of the known coreceptor(s) artemin can utilize to activate RET, its ability to directly bind to soluble Fc-fusion forms of GFRα1, GFRα2, or GFRα3 was assessed. GFRα1-Fc, GFRα2-Fc and GFRα3-Fc fusion proteins were obtained from R&D Systems. Binding assays were performed similarly to assays previously described (Sanicola et al., Proc. Natl. Acad. Sci., USA 94:6238-6243, 1997). Recombinant GDNF, neurturin, artemin, persephin, or purified bovine serum albumin (BSA; Pierce) were coated to Nunc-Immuno MaxiSorp microtiter plates at 325 ng/ml in TBS (10 mM Tris-HCl pH 7.5, 150 mM NaCl) for 1 hour at 25° C. Plates were washed (3× in TBS/0.03% Tween-20), and then blocked (blocking solution: TBS/1% BSA) for 1 hr at 25° C. Receptor bodies diluted in blocking solution were added and incubated for 2 hr at 25° C., washed 5X, then incubated with 1:10,000 dilution of HRP-conjugated anti-human Fc antibodies in blocking solution (Jackson Immunoresearch) for 45 minutes at 25° C. […] The reaction was stopped by adding an equal volume of 0.5M H2SO4, and color was measured in a plate reader at 450 nm. Non-specific binding of receptor bodies to the plates was measured in BSA coated wells, and this binding was subtracted from all other measurements.

Substance: artemin: recombinant mature human artemin (FIG. 3A, SEQ ID NO:3) with 8-histidine tag, produced in E. coli; GDNF family neurotrophic factor
- survival of TH+ dopaminergic midbrain neurons [1]: supported the survival of dopaminergic midbrain neurons
- direct binding of GFRα3-Fc (GFRα3-Fc): able to bind to artemin
